Our source for the pest or weed control, inhibition and mortality values is patent US12593845B2 (priority 2019, dated 2026).

Assay [1] concerns apple scab pathogen (Venturia inaequalis). The assay can be described thus: Apple scab control test. In kind it is in vivo. The note with it: 336 h, 125 ppm drug solution sprayed onto apple seedlings (Orin), lesion area ratio 2 weeks after inoculation. Summed up:
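Compound emulsion diluted in water to 125 ppm and sprayed on 3-4 leaf 'Orin' apple seedlings, which were inoculated with V. inaequalis conidiospores after drying and held humidified at 20° C, 12 h light/dark. Lesion area ratio scored 2 weeks post-inoculation; control value computed relative to unsprayed inoculated plants.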

Assay [2] deals with wheat brown rust pathogen (Puccinia recondita). The assay can be described thus: Wheat brown rust control test. The note with it: 288 h, 125 ppm drug solution sprayed onto wheat seedlings (Norin 61), lesion area ratio 12 days after inoculation. In kind it is in vivo. On the procedure: (§1) 5 parts by weight of the dihydropyrimidine compound of the present invention, 93.5 parts by weight of N,N-dimethylformamide, and 1.5 parts by weight of polyoxyethylene sorbitan monolaurate (TWEEN® 20) were mixed and dissolved to obtain an emulsion (I) including 5% of an active ingredient.
(§2) The control value was calculated by the following expression. Control value (%)=100−{lesion area ratio in treated group/lesion area ratio in untreated group}×100 [Expression 1]
Water was added to the emulsion (I) such that the concentration of the dihydropyrimidine compound reached 125 ppm to dissolve the emulsion, and a drug solution was obtained. Subsequently, the drug solution was sprayed onto wheat seedlings (variety: “Norin 61”, leaf stage: 1 to 2) cultivated in seedling pots. After air drying, uredospores of a wheat brown rust pathogen (Puccinia recondita) were sprinkled on wheat seedlings sprayed with the drug solution for inoculation (treated group). As a control, wheat seedlings that were not sprayed with the drug solution were inoculated in the same manner as described above (untreated group). The seedlings were left to stand in a greenhouse at 20° C.
On the 12 days after the inoculation, the leaves of the wheat seedlings were visually observed to determine the lesion area ratio, and the control value was calculated.

Assay [3] deals with wheat powdery mildew pathogen (Erysiphe graminis f. sp. tritici). The assay can be described thus: Wheat powdery mildew control test. Format: in vivo. The note with it: Blumeria graminis, 144 h; 125 ppm drug solution sprayed onto wheat seedlings (Chihoku); lesion area ratio 6 days after inoculation. On the procedure:
as §1, §2
Water was added to the emulsion (I) such that the concentration of the dihydropyrimidine compound reached 125 ppm to dissolve the emulsion, and a drug solution was obtained. Subsequently, the drug solution was sprayed onto wheat seedlings (variety: “Chihoku”, leaf stage: 1 to 2) cultivated in seedling pots. After air drying, conidiospores of a wheat powdery mildew pathogen (Erysiphe graminis f. sp. tritici) were sprinkled thereon for inoculation (treated group). As a control, wheat seedlings that were not sprayed with the drug solution were inoculated in the same manner as described above (untreated group). The seedlings were left to stand in a greenhouse at 20° C.
On the 6 days after the inoculation, the leaves of the wheat seedlings were visually observed to determine the lesion area ratio, and the control value was calculated.

A further assay deals with Aspergillus niger. The assay can be described thus: Antimicrobial test against Aspergillus niger. In kind it is cell-based. The note with it: 96 h, Vogel medium, 25° C., 4 days in the dark, turbidity at 405 nm, read-out: growth inhibition rate. A digest of the protocol:
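Growth inhibition (%) derived from 405 nm turbidity versus untreated control. Compound, dissolved in DMSO, tested at 25 ppm on spores in Vogel medium; cultures kept dark, 25° C., 4 days.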

In the next assay the test system is Meloidogyne incognita. The assay can be described thus: Efficacy against Meloidogyne incognita. In kind it is in vivo. The note with it: 96 h, second-instar larvae (L2), 40 μL of 125 ppm drug solution added to 160 μL suspension per well, 20° C., 4 days, read-out: nematode mortality rate. The method, then: as §1
A suspension containing about 50/0.16 mL second-instar larvae (L2) of Meloidogyne incognita was poured into a 96-well microplate at 160 μL per well. Then, a drug solution prepared by adding water to the emulsion (I) so as to have a concentration of the dihydropyrimidine compound of 125 ppm was poured at 40 μL per well. The plate was left to stand under a 20° C. condition for 4 days.
Mortality was determined, and the nematode mortality rate was calculated. […] The test repeated twice.

The subject of assay [4] is wheat powdery mildew pathogen (Erysiphe graminis f. sp. tritici). The assay can be described thus: Wheat powdery mildew seed treatment test. Format: in vivo. The note with it: Blumeria graminis, 168 h; seed treatment 100 g/100 kg wheat seeds (Chihoku); inoculation after 8 to 10 days; lesion area ratio 7 days after inoculation. On the procedure: as §1, §2
The emulsion (I) was used to treat seeds such that (weight of dihydropyrimidine compound)/(weight of seeds) reached 100 g/100 kg based on the wheat seeds (variety: “Chihoku”). These seeds were disseminated in pots, and after 8 to 10 days, conidiospores of a wheat powdery mildew pathogen (Erysiphe graminis f. sp. tritici) were sprinkled thereon for inoculation (treated group). As a control, wheat seedlings that were not treated with the drug were inoculated in the same manner as described above (untreated group). The seedlings were left to stand in a greenhouse at 20° C.
(§3) On the 7 days after the inoculation, the leaves of the wheat seedlings were visually observed to determine the lesion area ratio, and the control value was calculated.

Assay [5] has the same test system. The assay can be described thus: Wheat powdery mildew soil irrigation treatment test. The note with it: Blumeria graminis, 168 h; soil irrigation with 10 ml of 100 ppm drug solution per pot, wheat (Chihoku); inoculation after 8 to 10 days; lesion area ratio 7 days after inoculation. In kind it is in vivo. The method, then:
as §1, §2
Pots (5.5 cm×5.5 cm) in which wheat seeds (variety: “Chihoku”) were disseminated were irrigated with 10 ml of a drug solution prepared by adding water to the emulsion (I) so as to have a concentration of the dihydropyrimidine compound of 100 ppm. After 8 to 10 days, conidiospores of a wheat powdery mildew pathogen (Erysiphe graminis f. sp. tritici) were sprinkled thereon for inoculation (treated group). As a control, wheat seedlings that were not treated with the drug were inoculated in the same manner as described above (untreated group). The seedlings were left to stand in a greenhouse at 20° C.
as §3

For orientation: pest or weed control means the degree to which the test organism was suppressed or injured, in per cent. A word on the inhibition: it is the share of the control response that was lost under treatment. For `COc1ccc(F)cc1C(Cn1cc(/C(C)=N/OC(C)C)c(=O)n(CC(C)(C)C(=O)NC(C)C)c1=O)OCCC#N` (centres unmarked) [A-1], the pest or weed control at 125 ppm in assay [1], in assay [2] and in assay [3] was no less than 75% in each case. In addition, the inhibition at 25 ppm in the assay with Aspergillus niger was no less than 50%.

`COc1ccc(F)cc1C(O)Cn1cc(/C(C)=N/OC(C)C)c(=O)n(CC(C)(C)C(=O)NC(C)C)c1=O` (centres unmarked) [A-2]: the pest or weed control at 125 ppm in assay [1], in assay [2] and in assay [3] was no less than 75% each time.

As for `COc1ccc(F)cc1C(Cn1cc(C=NOCC(F)F)c(=O)n(C(C)C(=O)NC(C)C)c1=O)OCCC#N` (centres unmarked) [A-10], the pest or weed control at 125 ppm in assay [1], in assay [2] and in assay [3] was no less than 75% each time.

Take `CCCON=Cc1cn(CC(OCCC#N)c2cc(F)ccc2OC)c(=O)n(C(C)C(=O)NC(C)C)c1=O` (centres unmarked) [A-11]: the pest or weed control at 125 ppm in assay [1], in assay [2] and in assay [3] was no less than 75% each time.

Regarding `COc1ccc(F)cc1C(Cn1cc(C=NOC(C)C)c(=O)n(C(C)C(=O)NC(C)C)c1=O)OCCC#N` (centres unmarked) [A-14, 2-(3-(2-(2-cyanoethoxy)-2-(5-fluoro-2-methoxyphenyl)ethyl)-5-((isopropoxyimino)methyl)-2,6-dioxo-3,6-dihydropyrimidin-1(2H)-yl)-N-isopropylpropanamide], the pest or weed control at 125 ppm in assay [1], in assay [2] and in assay [3] was no less than 75% in each case. For the same molecule, in the assay on Aspergillus niger, the inhibition at 25 ppm is no less than 50%.

Consider `CCON=Cc1cn(CC(OCCC#N)c2cc(F)ccc2OC)c(=O)n(CCNC(=O)C(C)C)c1=O` (centres unmarked) [A-17], for which the pest or weed control at 125 ppm in assay [1], in assay [2] and in assay [3] was no less than 75% in each case.

Consider `CCON=Cc1cn(CC(OCCC#N)c2cc(F)ccc2OC)c(=O)n(C(C)C(=O)NC(C)C)c1=O` (centres unmarked) [A-23], for which the pest or weed control at 125 ppm in assay [1], in assay [2] and in assay [3] was no less than 75% in each case. Moreover, in the assay with Aspergillus niger, the inhibition at 25 ppm was no less than 50%.

On to `CCO/N=C(\C)c1cn(CC(OCCC#N)c2cc(F)ccc2OC)c(=O)n(CC(C)(C)C(=O)NC(C)C)c1=O` (centres unmarked) [A-24], for which the pest or weed control at 125 ppm in assay [1], in assay [2] and in assay [3] was no less than 75% throughout. Besides, the inhibition at 25 ppm with Aspergillus niger is no less than 50%.

In general, mortality refers to the share of the test organisms that died. Turning to `CON=C(C)c1cn(CC(O)c2cc(F)ccc2OC)c(=O)n(C(C)C(=O)NC(C)C)c1=O` (centres unmarked) [A-28], the mortality at 125 ppm in the assay with Meloidogyne incognita is no less than 60%.

With `CCO/N=C(\C)c1cn(CC(O)c2cc(F)ccc2OC)c(=O)n(C2CCCC2NC(=O)C(C)C)c1=O` (centres unmarked) [A-48], the pest or weed control at 125 ppm in assay [1], in assay [2] and in assay [3] was no less than 75% in each case.

As to `COc1ccc(F)cc1C(Cn1cc(C=NOC(C)C)c(=O)n(C[C@H](C)NC(=O)C(C)C)c1=O)OCCC#N` (some centres unmarked) [A-60], the pest or weed control at 125 ppm in assay [1], in assay [2] and in assay [3] was no less than 75% throughout. Besides, the pest or weed control at 100 g/100 kg seed in assay [4] is no less than 75%. In addition, the pest or weed control at 100 ppm in assay [5] is no less than 75%. Besides, the inhibition at 25 ppm in the assay on Aspergillus niger is no less than 50%.

`COc1ccc(F)cc1C(Cn1cc(/C(C)=N/OC(C)C)c(=O)n(C[C@H](C)NC(=O)C(C)C)c1=O)OC` (some centres unmarked) [A-61]: the pest or weed control at 125 ppm in assay [1], in assay [2] and in assay [3] was no less than 75% each time. Moreover, in assay [4], the pest or weed control at 100 g/100 kg seed is no less than 75%. For the same molecule, the inhibition at 25 ppm in the assay with Aspergillus niger is no less than 50%.

As to `COc1ccc(F)cc1C(Cn1cc(/C(C)=N/OC(C)C)c(=O)n(C[C@H](C)NC(=O)C(C)C)c1=O)OCCC#N` (some centres unmarked) [A-63], the pest or weed control at 125 ppm in assay [1], in assay [2] and in assay [3] was no less than 75% in each case. In addition, the inhibition at 25 ppm with Aspergillus niger was no less than 50%.

Consider `C=C1CCN(C(=O)C(C)n2c(=O)c(C=NOC(C)C)cn(CC(O)c3cc(F)ccc3OC)c2=O)CC1` (centres unmarked) [A-70], for which the pest or weed control at 125 ppm in assay [1], in assay [2] and in assay [3] was no less than 75% each time.

For the molecule `COc1ccc(F)cc1C(O)Cn1cc(C=NOC(C)C)c(=O)n(C[C@H](C)NC(=O)C(C)C)c1=O` (some centres unmarked) [A-76], the pest or weed control at 125 ppm in assay [1], in assay [2] and in assay [3] was no less than 75% in each case. Moreover, in assay [4], the pest or weed control at 100 g/100 kg seed is no less than 75%. Moreover, the pest or weed control at 100 ppm in assay [5] is no less than 75%. In addition, the inhibition at 25 ppm in the assay with Aspergillus niger was no less than 50%.

Regarding `COc1ccc(F)cc1C(Cn1cc(C=NOC(C)C)c(=O)n(C(C)C(=O)NC2CC2)c1=O)OCCC#N` (centres unmarked) [A-80], the pest or weed control at 125 ppm in assay [1], in assay [2] and in assay [3] was no less than 75% in each case. Besides, the inhibition at 25 ppm with Aspergillus niger was no less than 50%.

Turning to `CCON=Cc1cn(CC(OC)c2cc(F)ccc2OC)c(=O)n(C(C)C(=O)NC(C)C)c1=O` (centres unmarked) [A-91], the pest or weed control at 125 ppm in assay [1], in assay [2] and in assay [3] was no less than 75% throughout.

Take `COc1ccc(F)cc1C(O)Cn1cc(C=NOC(C)C)c(=O)n(C(C)C(=O)NC(C)C)c1=O` (centres unmarked) [A-93]: the pest or weed control at 125 ppm in assay [1], in assay [2] and in assay [3] was no less than 75% in each case. Also, in the assay with Aspergillus niger, the inhibition at 25 ppm was no less than 50%.

As to `C=CCOC(Cn1cc(/C(C)=N/OCC)c(=O)n(CCNC(=O)C(C)C)c1=O)c1cc(F)ccc1OC` (centres unmarked) [A-95], the pest or weed control at 125 ppm in assay [1], in assay [2] and in assay [3] was no less than 75% in each case. Also, in the assay with Aspergillus niger, the inhibition at 25 ppm was no less than 50%.

Consider `COc1ccc(F)cc1C(Cn1cc(/C(C)=N/OC(C)C)c(=O)n(CCN(C)C(=O)C(C)C)c1=O)OC` (centres unmarked) [A-99], for which the pest or weed control at 125 ppm in assay [1], in assay [2] and in assay [3] was no less than 75% throughout.

As for `COc1ccc(F)cc1C(Cn1cc(/C(C)=N/OC(C)C)c(=O)n(CCNC(=O)C(C)C)c1=O)OC` (centres unmarked) [A-100], the pest or weed control at 125 ppm in assay [1], in assay [2] and in assay [3] was no less than 75% throughout. The inhibition at 25 ppm with Aspergillus niger was no less than 50%.

As to `CC[C@@H](Cn1c(=O)c(/C(C)=N/OC(C)C)cn(CC(O)c2ccccc2OC)c1=O)NC(=O)C(C)C` (some centres unmarked) [C-92], the mortality at 125 ppm in the assay with Meloidogyne incognita was no less than 60%.

Consider `COc1ccc(Br)cc1C(O)Cn1cc(/C(C)=N/OC(C)C)c(=O)n(C[C@H](C)NC(=O)C(C)C)c1=O` (some centres unmarked) [C-145], for which the mortality at 125 ppm in the assay on Meloidogyne incognita was no less than 60%.
